Values joined by “and” are separate entries in the source; they are usually repeats but may differ in a detail not shown here. Identical values can stand only once. Like-named read-outs stand apart in the source and are kept apart here.
Key:
[1] = Cytotoxicity in host cells by microscopic examination and retardation of cell growth rate; format: cell-based; conditions: dog; MDCK cells; hydrochloride; read-out: MCC (minimum cytotoxic concentration)
Procedure: Virus (Influenza A/PR/8/34 (HO,Nl) strain) and cell culture (MDCK cells) were used in this study and were grown in Earle-based Eagle-MEM containing 2.5 mg/ml of NaHCO3 and 10% fetal calf serum. Maintenance medium was Eagle's MEM containing 2.5 mg/ml NaHCO3, 0.1% bovine serum albumin and 20 μg/ml Tnypsin.
After washing MDCK Cell monolayers with PBS(-), maintenance medium containing 10^3 TCID50 of virus the drug was added to each culture tube and these tubes were then incubated at 34° C. for 3 days.
Antiviral effects and cytotoxicities of the test compounds were tested against influenza virus by the tube dilution assay.
Cytotoxicity was determined by microscopic examination and retardation of cell growth rate of host cell, and represented by minimum cytotoxicic concentration (MCC, μg/ml).

[2] = system: Influenza A/PR/8/34 (HO,Nl) strain; experiment: microbe, parasite or virus in culture; format: cell-based, Influenza A virus; conditions: for minimal effective concentration: Influenza A virus, PR/8, 72 h, 34° C., 3 days, read-out: MEC (minimum effective concentration); for Chemotherapeutic index (MCC/MEC): 4320 min
[3] = system: catalepsy induced by haloperidol; experiment: Effects on the catalepsy induced by haloperidol (anti-catalepsy activity); format: in vivo, male dd-strain mice; conditions: for Number of showing anti-catalepty activity/Number of total animal: 0.5 hour after test drug, haloperidol 7 mg/kg s.c., hydrochloride
Procedure: Pharmcol., 22, 546-547 (1970)" or "J. May et al., Psychopharmcol., 24, 296-307 (1972)".
Effects on the catalepsy induced by haloperidol:
Six male dd-strain mice, weighing 25±3 g, were used in each group. Test drugs were injected intraperitoneally or subcutaneously 3.5 hours after the injection of haloperidol (7 mg/kg, s.c.).
The catalepsy was measured at 0.5 hour after injection of test drugs according to the method of Wirth et al. with slight modification [cf. Wirth, R., Gosswald, R., Horlein, V., Risse, K. H. and Kreiskott, H. Archs int. Pharmacodyn., Ther., 115, 1-31 (1958)].

[4] = Acute toxicity: mortality after subcutaneous injection; format: in vivo, male dd-strain mice; parameters: key to appearance of hyperactivity / clonic convulsion: ±: appearance of hyperactivity; +: appearance of clonic convulsion; conditions: mice
Procedure: Six male dd-strain mice, weighing 25±3 g, were used in each group. Test drugs were injected subcutaneously (0.2 ml/10 g).
Mortality at the 3rd day after subcutaneous injection:-
^(*1) Number of deaths/Number of animals used.

[5] = system: Influenza A/PR/8/34 (HO,Nl) strain; format: in vivo, Influenza A virus; ICR male mice; conditions: for LLS (lung lesion score): score 0-5, control 4.7; for efficacy compared with amantadine: as indicated in Table III
[6] = system: central nervous system (CNS); conditions: known drug; cited from earlier work
[7] = 1000 mg/kg s.c., hydrochloride (29-1: not hydrochloride)
[8] = hydrochloride (29-1: not hydrochloride)

Structure (SMILES)	MCC at 72 h [1]	minimal effective concentration ([2]; MDCK cells, hydrochloride)	Chemotherapeutic index (MCC/MEC) ([2]; MDCK cells, hydrochloride)	Number of showing anti-catalepty activity/Number of total animal ([3]; 500 mg/kg s.c.)	other results
CNC12COC3CC(CCC31)C2 (stereo not drawn) [Compound No. 18-2, 5-Oxa-3-N-methylamino-isotwistane]	> 200 µg/mL	50 µg/mL	> 4	–	Number of showing anti-catalepty activity/Number of total animal ([3]; 250 mg/kg s.c.): 3/6; Mortality rate at the 3rd day after subcutaneous injection (Number of deaths/Number of animals used) ([4]; 500 mg/kg s.c., hydrochloride): 0/6; appearance of hyperactivity / clonic convulsion ([4]; 500 mg/kg s.c., hydrochloride): ±
NCC12COC3CC(CCC31)C2 (stereo not drawn) [Compound No. 27-2, 5-Oxa-3-aminomethyl-isotwistane]	200 µg/mL	25 µg/mL	8	1/6	times as safe as amantadine (by chemotherapeutic index) ([2]; compared with amantadine): 8 times; Mortality rate at the 3rd day after subcutaneous injection (Number of deaths/Number of animals used) ([4]; 1190 mg/kg s.c., hydrochloride): 0/6; appearance of hyperactivity / clonic convulsion ([4]; 1190 mg/kg s.c., hydrochloride): ±
NC1C2CC3COC1C3C2 (stereo not drawn) [Compound No. 44-3, 2-Amino-4-oxa-brendane]	100 µg/mL	50 µg/mL	2	–	–
CN(C)CC12COC3CC(CCC31)C2 (stereo not drawn) [Compound No. 41-5, 5-Oxa-3-N,N-dimethylaminomethyl-isotwistane]	100 µg/mL	50 µg/mL	2	–	–
NC[C@H]1[C@H]2CC[C@H]3[C@@H]1CO[C@H]3C2 (relative stereo) [Compound No. 67-1, exo-2-aminomethyl-5-oxa-isotwistane]	100 µg/mL	25 µg/mL	4	–	–
NC1C2CCC3C(COC13)C2 (stereo not drawn) [Compound No. 44-4, 2-Amino-4-oxa-isotwistane]	100 µg/mL	100 µg/mL	1	0/6	Mortality rate at the 3rd day after subcutaneous injection (Number of deaths/Number of animals used) [4, 7]: 0/6
CC(N)C12COC3CC(CCC31)C2 (stereo not drawn) [Compound No. 44-1, 5-oxa-3-(α-aminoethyl)-isotwistane]	50 µg/mL	25 µg/mL	2	–	Number of showing anti-catalepty activity/Number of total animal ([3]; 250 mg/kg s.c.): 1/6; appearance of hyperactivity / clonic convulsion ([4]; 1000 mg/kg s.c., hydrochloride): ±; Mortality rate at the 3rd day after subcutaneous injection (Number of deaths/Number of animals used) [4, 7]: 0/6
NC[C@@H]1[C@H]2CC[C@H]3[C@@H]1CO[C@H]3C2 (relative stereo) [Compound No. 25-3, 5-Oxa-endo-2-aminomethyl-isotwistane]	100 µg/mL	25 µg/mL	4	0/6	Mortality rate at the 3rd day after subcutaneous injection (Number of deaths/Number of animals used) [4, 7]: 0/6
NC12CC3CC(CC(C3)C1)C2 [Amantadine, reference compound]	12.5 µg/mL	12.5 µg/mL	–	–	LLS (lung lesion score) ([5]; hydrochloride): 4.3; Chemotherapeutic index (MCC/MEC) ([2]; mdck): 1; CNS-effects (in words), amantadine [6]: strong effects on a central nervous system (CNS); Number of showing anti-catalepty activity/Number of total animal ([3]; 50 mg/kg s.c.): 3/6 and 2/6; antagonism of the catalepsy (in words), amantadine ([3]; at 50 mg/kg): antagonizes the catalepsy at 50 mg/kg; Mortality rate at the 3rd day after subcutaneous injection (Number of deaths/Number of animals used) ([4]; 300 mg/kg s.c., hydrochloride): 6/6
N[C@@H]1[C@H]2CC[C@H]3[C@@H]1CO[C@H]3C2 (relative stereo) [Compound No. 12-4, 5-Oxa-endo-2-amino-isotwistane]	100 µg/mL	50 µg/mL	2	0/6	Mortality rate at the 3rd day after subcutaneous injection (Number of deaths/Number of animals used) ([4]; 2000 mg/kg s.c., hydrochloride): 0/6; appearance of hyperactivity / clonic convulsion ([4]; 2000 mg/kg s.c., hydrochloride): ±
NCC12CSC3CC(CC31)C2 (stereo not drawn) [Compound No. 49-1, 5-thia-3-aminomethyl-brendane]	50 µg/mL	25 µg/mL	2	–	Number of showing anti-catalepty activity/Number of total animal ([3]; 125 mg/kg s.c.): 1/6; Mortality rate at the 3rd day after subcutaneous injection (Number of deaths/Number of animals used) ([4]; 250 mg/kg s.c., hydrochloride): 0/6; appearance of hyperactivity / clonic convulsion ([4]; 250 mg/kg s.c., hydrochloride): +
NCC1C2CCC3C(COC13)C2 (stereo not drawn) [Compound No. 12-10]	100 µg/mL	25 µg/mL	4	–	–
NCCCC12COC3CC(CCC31)C2 (stereo not drawn) [Compound No. 27-4, 5-Oxa-3-(ω-amino-n-propyl)-isotwistane]	100 µg/mL	25 µg/mL	4	–	Mortality rate at the 3rd day after subcutaneous injection (Number of deaths/Number of animals used) ([4]; 250 mg/kg s.c., hydrochloride): 1/6; Mortality rate at the 3rd day after subcutaneous injection (Number of deaths/Number of animals used) ([4]; 500 mg/kg s.c., hydrochloride): 6/6
NCC12CSC3CC(CCC31)C2 (stereo not drawn) [Compound No. 53-1]	25 µg/mL	12.5 µg/mL	2	–	Mortality rate at the 3rd day after subcutaneous injection (Number of deaths/Number of animals used) ([4]; 500 mg/kg s.c., hydrochloride): 3/6
N[C@H]1[C@H]2CC[C@H]3[C@@H]1CO[C@H]3C2 (relative stereo) [Compound No. 12-9, 5-Oxa-exo-2-amino-isotwistane]	100 µg/mL	50 µg/mL	2	–	–
NC12COC3CC(CCC31)C2 (stereo not drawn) [Compound No. 12-3, 5-Oxa-3-amino-isotwistane]	100 µg/mL	50 µg/mL	2	2/6	LLS (lung lesion score) [5, 8]: 3.6; efficacy compared with amantadine [5]: comparable to that of amantadine; Mortality rate at the 3rd day after subcutaneous injection (Number of deaths/Number of animals used) ([4]; 705 mg/kg s.c., hydrochloride): 0/6; appearance of hyperactivity / clonic convulsion ([4]; 705 mg/kg s.c., hydrochloride): ±
COC(=O)C12COC3CC(CC31)C2 (stereo not drawn) [Compound No. 29-1, 5-oxa-3-methoxycarbonyl-brendane]	–	–	–	–	LLS (lung lesion score) [5, 8]: 4.3; efficacy compared with amantadine [5]: comparable to that of amantadine; Mortality rate at the 3rd day after subcutaneous injection (Number of deaths/Number of animals used) [4, 7]: 0/6
CN[C@@H]1[C@H]2CC[C@H]3[C@@H]1CO[C@H]3C2 (relative stereo) [Compound No. 18-3, 5-Oxa-endo-2-N-methylamino-isotwistane]	> 200 µg/mL	50 µg/mL	> 4	1/6	appearance of hyperactivity / clonic convulsion ([4]; 1000 mg/kg s.c., hydrochloride): ±; Mortality rate at the 3rd day after subcutaneous injection (Number of deaths/Number of animals used) [4, 7]: 0/6

Reference: patent US4347254A, “Tricyclic cage compounds, their synthesis and use as antiviral agents” (Sumitomo Chemical Company, Limited, priority 1978, dated 1982)
